Measured values: publication PMC9414551 (Pharmaceuticals, 2022)
Where a name gives a salt, the structure may show the parent alone.

Legend:
Assay type in all cases: cell-based
[1] = molecular target: T1, NR1-2B NMDAR (Homo sapiens, UniProt Q05586+Q13224); assay: FLIPR Ca2+ assay, blocker concentration-response curve; set-up: host or cells: CHO (CHO-hNR1-h2B), constitutive expression; settings: for Min. (%), minimal % Ca2+ influx in the presence of 100 μM blocker: 10 µM L-glutamate, no Mg2+; for Slope: logistic fit of blocker CRC
Source text: (§1) CHO cell lines stably over-expressing heterodimeric NMDARs composed of human NR1 and 2 subunits were generated by Aptuit, an Evotec company (Verona, Italy). Cell line details are available at ExPASy Cellosaurus database. Research Resource Identifiers (RRIDs) are CVCL_B3TY, CVCL_B3TZ, CVCL_B3U0, and CVCL_B3U1 for CHO-hNR1-h2A, CHO-hNR1-h2B, CHO-hN1-h2C, and CHO-hN1-h2D, respectively. Protein accession numbers were NP_015566, NP_000824, NP_000825, NP_000826, and NP_000827 for NR1, 2A, 2B, 2C, and 2D, respectively. […] The four different heterodimeric NMDARs studied were NR1-2A, NR1-2B, NR1-2C, and NR1-2D. Cell lines were cultured for a maximum of 75 passages.
(§2) FLIPR assay allowed for indirect measurement of intracellular Ca^2+ concentration by means of a Ca^2+-sensitive fluorescent dye (Fluo-4) using the FLIPR instrument (Molecular Devices, San Jose, CA, USA). For these assays, 40 mM stock solutions of the test items were prepared in 100% dimethyl sulfoxide (DMSO), while glutamate and glycine 4 mM stock solutions were prepared in water. 384-well compound plates containing 400 × concentrated test item, glutamate, and glycine were prepared using Labcyte Echo acoustic dispensing system and stored at −20 °C until the day of the experiment.
(§3) Glycine 10 μM was always included in every test item addition.
(§4) Glycine was kept at a constant concentration of 10 μM during experiments.

[2] = molecular target: T1, NR1-2B NMDAR; assay: cell-based; set-up: host or cells: CHO (CHO-hNR1-h2B), constitutive expression; settings: for remaining activity at 0.049 µM / remaining activity at 0.195 µM / remaining activity at 0.781 µM / remaining activity at 3.1 µM / remaining activity at 12.5 µM / remaining activity at 50 µM: read-out: L-glutamate Max. (maximal asymptote) in the presence of test item, GluN1/GluN2B; for remaining activity at 0.049 µM: test item 0.049 μM; for remaining activity at 0.195 µM: test item 0.195 μM; for remaining activity at 0.781 µM: test item 0.781 μM; for remaining activity at 3.1 µM: test item 3.1 μM; for remaining activity at 12.5 µM: test item 12.5 μM; for remaining activity at 50 µM: test item 50 μM
[3] = molecular target: T2, NR1-2C NMDAR (Homo sapiens, UniProt Q05586+Q14957); assay: FLIPR Ca2+ assay, blocker concentration-response curve; set-up: host or cells: CHO (CHO-hN1-h2C), tetracycline-induced expression; settings: for Min. (%), minimal % Ca2+ influx in the presence of 100 μM blocker: 10 µM L-glutamate, no Mg2+; for Slope: logistic fit of blocker CRC
Source text: as §1, §2, §3, §4

[4] = molecular target: T3, NR1-2D NMDAR (Homo sapiens, UniProt O15399+Q05586); assay: as above; set-up: host or cells: CHO (CHO-hN1-h2D), tetracycline-induced expression; settings: for Min. (%), minimal % Ca2+ influx in the presence of 100 μM blocker: 10 µM L-glutamate, no Mg2+; for Slope: logistic fit of blocker CRC
Source text: as §1, §2, §3, §4

[5] = molecular target: T2, NR1-2C NMDAR; assay: cell-based; set-up: host or cells: CHO (CHO-hN1-h2C), tetracycline-induced expression; settings: for remaining activity at 0.049 µM / remaining activity at 0.195 µM / remaining activity at 0.781 µM / remaining activity at 3.1 µM / remaining activity at 12.5 µM / remaining activity at 50 µM: read-out: L-glutamate Max. (maximal asymptote) in the presence of test item, GluN1/GluN2C; for remaining activity at 0.049 µM: test item 0.049 μM; for remaining activity at 0.195 µM: test item 0.195 μM; for remaining activity at 0.781 µM: test item 0.781 μM; for remaining activity at 3.1 µM: test item 3.1 μM; for remaining activity at 12.5 µM: test item 12.5 μM; for remaining activity at 50 µM: test item 50 μM
[6] = molecular target: T3, NR1-2D NMDAR; assay: cell-based; set-up: host or cells: CHO (CHO-hN1-h2D), tetracycline-induced expression; settings: for remaining activity at 0.049 µM / remaining activity at 0.195 µM / remaining activity at 0.781 µM / remaining activity at 3.1 µM / remaining activity at 12.5 µM / remaining activity at 50 µM: read-out: L-glutamate Max. (maximal asymptote) in the presence of test item, GluN1/GluN2D; for remaining activity at 0.049 µM: test item 0.049 μM; for remaining activity at 0.195 µM: test item 0.195 μM; for remaining activity at 0.781 µM: test item 0.781 μM; for remaining activity at 3.1 µM: test item 3.1 μM; for remaining activity at 12.5 µM: test item 12.5 μM; for remaining activity at 50 µM: test item 50 μM
[7] = molecular target: T4, NR1-2A NMDAR (Homo sapiens, UniProt Q05586+Q12879); assay: FLIPR Ca2+ assay, blocker concentration-response curve; set-up: host or cells: CHO (CHO-hNR1-h2A), tetracycline-induced expression; settings: for Slope: logistic fit of blocker CRC
Source text: as §1, §2, §3, §4

[8] = molecular target: T4, NR1-2A NMDAR; assay: cell-based; set-up: host or cells: CHO (CHO-hNR1-h2A), tetracycline-induced expression; settings: for remaining activity at 0.049 µM / remaining activity at 0.195 µM / remaining activity at 0.781 µM / remaining activity at 3.1 µM / remaining activity at 12.5 µM / remaining activity at 50 µM: read-out: L-glutamate Max. (maximal asymptote) in the presence of test item, GluN1/GluN2A; for remaining activity at 0.049 µM: test item 0.049 μM; for remaining activity at 0.195 µM: test item 0.195 μM; for remaining activity at 0.781 µM: test item 0.781 μM; for remaining activity at 3.1 µM: test item 3.1 μM; for remaining activity at 12.5 µM: test item 12.5 μM; for remaining activity at 50 µM: test item 50 μM
[9] = molecular target: T2, NR1-2C NMDAR; assay: Whole-cell automated patch-clamp (QPatch) in 1 mM Mg2+; set-up: host or cells: CHO (CHO-hN1-h2C), tetracycline-induced expression; settings: 1 mM Mg2+
Description: Data were obtained in automated patch-clamp platform. […] Statistical results of one-way analysis of variance (ANOVA) followed by Tukey’s multiple comparisons test also reported p < 0.05 (*), p < 0.01 (**), p < 0.001 (***), and p < 0.0001 (****). Glu is glutamate.
For QPatch experiments, cells were grown in T-flasks first at 37 °C, 5% CO2 for 3 to 4 h, then at 30 °C, 5% CO2 for 18 to 24 h in DMEM/F12 medium with added 500 μM ketamine and 10 μg/mL tetracycline (except for NR1-2B-CHO cells) without additional antibiotics. Cells were manually detached from the culture dish and automatically dispensed in QPatch wells with extracellular solution in the presence of 1 mM Mg^2+ and 500 μM ketamine.
Holding potential was −80 mV, and voltage protocol included a depolarizing 2-s step pulse to +60 mV to check the quality of the seal and cell NMDAR expression level, followed by a 2-s ramp-up to holding potential.

T2 sequence (Q14957 20-1233, other chains not shown): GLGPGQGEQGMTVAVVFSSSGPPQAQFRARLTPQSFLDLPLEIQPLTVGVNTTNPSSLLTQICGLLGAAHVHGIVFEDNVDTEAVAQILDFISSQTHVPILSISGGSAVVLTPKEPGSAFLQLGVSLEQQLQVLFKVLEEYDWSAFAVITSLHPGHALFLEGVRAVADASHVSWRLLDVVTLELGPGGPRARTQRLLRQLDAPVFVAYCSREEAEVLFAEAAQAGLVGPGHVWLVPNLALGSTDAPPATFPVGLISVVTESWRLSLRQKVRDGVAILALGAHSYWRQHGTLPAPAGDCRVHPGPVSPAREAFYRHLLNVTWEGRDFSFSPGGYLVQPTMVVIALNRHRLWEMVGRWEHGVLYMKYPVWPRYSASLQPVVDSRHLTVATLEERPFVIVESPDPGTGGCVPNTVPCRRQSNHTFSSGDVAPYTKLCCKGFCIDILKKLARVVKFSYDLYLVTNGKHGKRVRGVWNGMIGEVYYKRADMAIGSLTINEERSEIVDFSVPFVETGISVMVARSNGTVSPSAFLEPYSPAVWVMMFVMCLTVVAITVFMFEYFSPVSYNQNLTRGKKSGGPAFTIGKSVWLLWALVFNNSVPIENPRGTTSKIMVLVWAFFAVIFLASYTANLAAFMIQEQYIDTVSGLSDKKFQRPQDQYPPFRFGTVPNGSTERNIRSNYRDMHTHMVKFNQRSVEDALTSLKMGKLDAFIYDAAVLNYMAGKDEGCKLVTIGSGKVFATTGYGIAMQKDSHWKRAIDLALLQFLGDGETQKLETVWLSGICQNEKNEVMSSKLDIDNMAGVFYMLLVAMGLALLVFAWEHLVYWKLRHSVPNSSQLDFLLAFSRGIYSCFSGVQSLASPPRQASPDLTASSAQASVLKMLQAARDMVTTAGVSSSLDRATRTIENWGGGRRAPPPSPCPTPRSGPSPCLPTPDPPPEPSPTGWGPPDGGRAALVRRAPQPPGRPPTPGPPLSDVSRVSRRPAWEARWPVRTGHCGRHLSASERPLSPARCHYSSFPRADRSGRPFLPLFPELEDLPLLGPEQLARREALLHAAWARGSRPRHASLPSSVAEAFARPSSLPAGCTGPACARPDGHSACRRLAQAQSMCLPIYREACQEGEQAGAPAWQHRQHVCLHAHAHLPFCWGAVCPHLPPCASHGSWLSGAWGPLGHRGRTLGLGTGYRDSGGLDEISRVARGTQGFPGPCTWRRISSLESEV
T4 sequence (Q12879 23-1464, other chains not shown): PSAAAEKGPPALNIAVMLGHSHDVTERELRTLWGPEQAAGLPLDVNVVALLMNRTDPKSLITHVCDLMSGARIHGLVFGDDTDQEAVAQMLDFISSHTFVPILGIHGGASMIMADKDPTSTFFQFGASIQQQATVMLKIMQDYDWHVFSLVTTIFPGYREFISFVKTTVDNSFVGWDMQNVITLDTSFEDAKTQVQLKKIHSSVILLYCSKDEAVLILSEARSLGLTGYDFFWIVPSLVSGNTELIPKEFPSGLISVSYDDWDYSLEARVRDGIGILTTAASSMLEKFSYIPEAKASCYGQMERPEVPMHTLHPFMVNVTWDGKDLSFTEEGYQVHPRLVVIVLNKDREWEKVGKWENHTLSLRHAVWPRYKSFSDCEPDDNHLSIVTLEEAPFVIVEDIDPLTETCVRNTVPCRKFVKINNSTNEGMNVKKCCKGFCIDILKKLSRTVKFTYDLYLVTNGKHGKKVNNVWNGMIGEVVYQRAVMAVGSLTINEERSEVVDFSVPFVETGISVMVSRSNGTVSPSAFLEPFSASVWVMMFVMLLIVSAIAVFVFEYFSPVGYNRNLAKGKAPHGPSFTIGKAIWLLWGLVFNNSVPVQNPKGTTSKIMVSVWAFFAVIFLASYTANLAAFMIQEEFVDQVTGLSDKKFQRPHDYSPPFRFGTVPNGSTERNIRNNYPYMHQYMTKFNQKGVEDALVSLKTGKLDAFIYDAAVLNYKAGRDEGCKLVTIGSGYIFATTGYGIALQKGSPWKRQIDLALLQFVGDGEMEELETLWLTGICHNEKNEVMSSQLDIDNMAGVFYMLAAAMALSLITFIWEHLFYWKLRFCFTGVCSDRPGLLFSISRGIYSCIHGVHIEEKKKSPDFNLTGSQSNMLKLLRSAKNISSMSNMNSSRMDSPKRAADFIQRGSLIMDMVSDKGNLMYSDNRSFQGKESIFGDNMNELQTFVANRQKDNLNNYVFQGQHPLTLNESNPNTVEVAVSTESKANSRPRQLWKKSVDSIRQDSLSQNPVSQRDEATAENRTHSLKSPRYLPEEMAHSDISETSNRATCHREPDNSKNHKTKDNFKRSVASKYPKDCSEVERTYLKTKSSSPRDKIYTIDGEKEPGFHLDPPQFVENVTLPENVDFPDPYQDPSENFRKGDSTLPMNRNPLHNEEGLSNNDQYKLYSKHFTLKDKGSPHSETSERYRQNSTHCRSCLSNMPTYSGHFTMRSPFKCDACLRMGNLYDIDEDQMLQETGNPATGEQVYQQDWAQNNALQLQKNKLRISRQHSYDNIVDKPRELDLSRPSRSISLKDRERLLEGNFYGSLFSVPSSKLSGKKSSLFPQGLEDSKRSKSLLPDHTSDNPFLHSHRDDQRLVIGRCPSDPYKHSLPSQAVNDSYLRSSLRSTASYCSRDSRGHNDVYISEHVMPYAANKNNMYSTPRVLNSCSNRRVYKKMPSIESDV
T1 sequence (Q13224 27-1484, other chains not shown): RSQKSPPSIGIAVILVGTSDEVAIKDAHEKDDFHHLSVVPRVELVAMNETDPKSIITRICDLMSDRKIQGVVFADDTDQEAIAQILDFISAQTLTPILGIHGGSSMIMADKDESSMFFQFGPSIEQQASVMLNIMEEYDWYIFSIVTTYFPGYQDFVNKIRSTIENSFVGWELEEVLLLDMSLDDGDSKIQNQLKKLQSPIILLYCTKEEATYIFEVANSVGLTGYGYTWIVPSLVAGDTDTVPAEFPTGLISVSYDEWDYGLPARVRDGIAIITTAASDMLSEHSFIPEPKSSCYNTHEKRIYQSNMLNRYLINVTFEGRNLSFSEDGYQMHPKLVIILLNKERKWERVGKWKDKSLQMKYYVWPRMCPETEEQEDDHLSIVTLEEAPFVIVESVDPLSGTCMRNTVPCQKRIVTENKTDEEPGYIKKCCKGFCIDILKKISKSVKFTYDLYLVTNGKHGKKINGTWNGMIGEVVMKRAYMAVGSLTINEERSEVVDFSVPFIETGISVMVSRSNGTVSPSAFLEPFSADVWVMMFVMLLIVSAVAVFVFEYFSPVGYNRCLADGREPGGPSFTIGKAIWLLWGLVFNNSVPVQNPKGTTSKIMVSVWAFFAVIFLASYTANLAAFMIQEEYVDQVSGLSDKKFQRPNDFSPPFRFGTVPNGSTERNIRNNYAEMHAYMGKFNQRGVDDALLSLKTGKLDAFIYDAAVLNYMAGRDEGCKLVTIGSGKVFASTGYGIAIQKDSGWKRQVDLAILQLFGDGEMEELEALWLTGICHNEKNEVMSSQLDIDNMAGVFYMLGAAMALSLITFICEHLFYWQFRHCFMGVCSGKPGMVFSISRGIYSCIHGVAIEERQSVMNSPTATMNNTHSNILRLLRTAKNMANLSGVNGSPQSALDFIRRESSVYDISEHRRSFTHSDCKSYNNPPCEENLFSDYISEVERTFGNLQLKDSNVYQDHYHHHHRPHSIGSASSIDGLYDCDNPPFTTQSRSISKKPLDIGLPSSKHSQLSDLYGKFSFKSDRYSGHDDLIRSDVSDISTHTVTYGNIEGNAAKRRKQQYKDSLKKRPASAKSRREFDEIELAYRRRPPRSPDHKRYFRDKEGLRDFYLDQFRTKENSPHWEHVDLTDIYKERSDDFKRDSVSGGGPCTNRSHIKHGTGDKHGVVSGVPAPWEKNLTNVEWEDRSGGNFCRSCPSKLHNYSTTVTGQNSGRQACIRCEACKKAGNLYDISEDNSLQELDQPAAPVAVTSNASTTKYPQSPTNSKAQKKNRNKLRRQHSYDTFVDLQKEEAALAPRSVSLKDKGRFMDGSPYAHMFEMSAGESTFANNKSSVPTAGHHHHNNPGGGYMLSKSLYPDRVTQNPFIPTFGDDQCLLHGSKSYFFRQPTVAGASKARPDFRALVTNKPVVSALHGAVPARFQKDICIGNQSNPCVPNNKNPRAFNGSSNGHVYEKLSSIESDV

Compound | Min. (%), minimal % Ca2+ influx in the presence of 100 μM blocker [1] | Slope [1] | remaining activity at 0.049 µM [2] | remaining activity at 0.195 µM [2] | remaining activity at 0.781 µM [2] | remaining activity at 3.1 µM [2] | remaining activity at 12.5 µM [2] | remaining activity at 50 µM [2] | Min. (%), minimal % Ca2+ influx in the presence of 100 μM blocker [3] | Slope [3] | Min. (%), minimal % Ca2+ influx in the presence of 100 μM blocker [4] | Slope [4] | remaining activity at 0.049 µM [5] | remaining activity at 0.195 µM [5] | remaining activity at 0.781 µM [5] | remaining activity at 3.1 µM [5] | remaining activity at 12.5 µM [5] | remaining activity at 50 µM [5] | remaining activity at 0.049 µM [6] | remaining activity at 0.195 µM [6] | also measured
COc1ccc2c(c1)[C@]13CCCC[C@@H]1[C@H](C2)N(C)CC3 [Dextromethorphan, dextromethorphan] | 14% | −0.89 | 95% | 92% | 88% | 74% | 57% | 32% | 14% | −1.0 | 43% | −1.2 | 95% | 97% | 86% | 67% | 26% | 13% | 93% | 91% | Kb ([2]; NR1-2B, operational equation for allosteric modulators, no Mg2+): 1.9 µM; Affinity Ratio (%) ([2]; NR1-2B, reciprocal of KB, highest affinity subtype = 100%): 63%; Kb ([5]; NR1-2C, operational equation for allosteric modulators, no Mg2+): 1.2 µM; Affinity Ratio (%) ([5]; NR1-2C, reciprocal of KB, highest affinity subtype = 100%): 100%; Kb ([6]; NR1-2D, operational equation for allosteric modulators, no Mg2+): 6.7 µM; Affinity Ratio (%) ([6]; NR1-2D, reciprocal of KB, highest affinity subtype = 100%): 18%; remaining activity at 0.781 µM [6]: 99%; remaining activity at 3.1 µM [6]: 87%; remaining activity at 12.5 µM [6]: 59%; remaining activity at 50 µM [6]: 31%; Min. (%), minimal % Ca2+ influx in the presence of 100 μM blocker ([7]; 100 μM blocker, 10 µM L-glutamate, no Mg2+): 35%; Slope [7]: −0.80; Kb ([8]; NR1-2A, operational equation for allosteric modulators, no Mg2+): 9.6 µM; Affinity Ratio (%) ([8]; NR1-2A, reciprocal of KB, highest affinity subtype = 100%): 13%; remaining activity at 0.049 µM [8]: 98%; remaining activity at 0.195 µM [8]: 92%; remaining activity at 0.781 µM [8]: 99%; remaining activity at 3.1 µM [8]: 88%; remaining activity at 12.5 µM [8]: 79%; remaining activity at 50 µM [8]: 44%
CCC(=O)C(C[C@H](C)N(C)C)(c1ccccc1)c1ccccc1 [REL-1017, dextromethadone HCl] | 14% | −1.1 | 96% | 96% | 93% | 89% | 72% | 35% | 15% | −0.84 | 47% | −0.68 | 99% | 100% | 95% | 94% | 75% | 30% | 101% | 97% | remaining activity at 0.781 µM [6]: 101%; remaining activity at 3.1 µM [6]: 97%; remaining activity at 12.5 µM [6]: 82%; remaining activity at 50 µM [6]: 41%; effect on L-glutamate-elicited current ([9]; 10 μM REL-1017, 1 μM L-glutamate): inactive; effect on L-glutamate-elicited current ([9]; 10 μM REL-1017, 10 μM L-glutamate): inactive; Slope [7]: −1.0; remaining activity at 0.049 µM [8]: 103%; remaining activity at 0.195 µM [8]: 98%; remaining activity at 0.781 µM [8]: 103%; remaining activity at 3.1 µM [8]: 98%; remaining activity at 12.5 µM [8]: 84%; remaining activity at 50 µM [8]: 35%
